Laboratory results published in patent US7851467B2, “Carbamate compounds as 5-HT4 receptor agonists” (Theravance, Inc., priority 2005, dated 2010).

Target: T1, human 5-HT3A receptor (Homo sapiens, UniProt P46098)
T1 construct: host or cells: HEK-293
T1 sequence (P46098 24-478): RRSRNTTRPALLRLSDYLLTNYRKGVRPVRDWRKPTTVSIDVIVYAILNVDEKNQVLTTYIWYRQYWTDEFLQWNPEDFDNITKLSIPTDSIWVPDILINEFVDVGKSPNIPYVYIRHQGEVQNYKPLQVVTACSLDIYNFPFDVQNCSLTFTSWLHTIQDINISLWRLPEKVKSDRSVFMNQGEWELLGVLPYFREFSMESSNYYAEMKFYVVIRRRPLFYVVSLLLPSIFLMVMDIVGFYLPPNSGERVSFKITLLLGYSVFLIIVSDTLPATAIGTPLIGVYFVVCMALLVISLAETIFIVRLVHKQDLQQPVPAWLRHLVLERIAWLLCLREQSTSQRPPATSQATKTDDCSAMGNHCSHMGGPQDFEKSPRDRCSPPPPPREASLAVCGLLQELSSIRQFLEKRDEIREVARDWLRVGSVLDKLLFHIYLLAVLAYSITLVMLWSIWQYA
Experiment: Radioligand binding assay on 5-HT3A human receptors: determination of receptor subtype selectivity
Details: [3H]-GR65630 at 0.50 nM for 5-HT3A
Procedure: Assay 2: Radioligand Binding Assay on 5-HT3A Human Receptors: Determination of Receptor Subtype Selectivity
a. Membrane Preparation 5-HT3A
HEK-293 (human embryonic kidney) cells stably-transfected with human 5-HT3A receptor cDNA were obtained from Dr. Michael Bruess (University of Bonn, […]) (Bmax=˜[…] protein, as determined using [^3H]-GR65630 membrane radioligand binding assay). […]
Radioligand binding assays were performed in 96-well polypropylene assay plates in a total assay volume of 200 μL containing 1.5-2 μg membrane protein in 50 mM HEPES pH 7.4, containing 0.025% BSA assay buffer. […] Non-specific binding was determined in the presence of 10 μM unlabeled MDL72222. […] Filter plates were washed three times with filtration buffer (ice-cold 50 mM HEPES, pH7.4) to remove unbound radioactivity. Plates were dried, 35 μL Microscint-20 liquid scintillation fluid (Packard BioScience Co., Meriden, Conn.) was added to each well and plates were counted in a Packard Topcount liquid scintillation counter (Packard BioScience Co., Meriden, Conn.).
Binding data were analyzed using the non-linear regression procedure described above to determine Ki values. The BOTTOM (curve minimum) was fixed to the value for nonspecific binding, as determined in the presence of 10 μM MDL72222. The quantity [L] in the Cheng-Prusoff equation was defined as the concentration [^3H]-GR65630. […]

CC(C)n1c(=O)n(C(=O)N[C@H]2C[C@H]3CC[C@@H](C2)N3CCCOC(=O)N2CCN(C(=O)C3CCCO3)CC2)c2ccccc21 (stereo partly drawn) [Example 1, 4-(tetrahydrofuran-2-carbonyl)piperazine-1-carboxylic acid 3-{(1S,3R,5R)-3-[(3-isopropyl-2-oxo-2,3-dihydrobenzoimidazole-1-carbonyl)amino]-8-aza-bicyclo[3.2.1]oct-8-yl}propyl ester]
5-HT4/5-HT3 receptor subtype selectivity, ratio Ki(5-HT3A)/Ki(5-HT4(c)): 160
